Reference: patent publication US11708393B2, “Targeted non-invasive imaging probes of EGFR expressing cells” (priority 2011, dated 2023)
“Also recorded” adds a separate entry of the source. Cy5.5 = cyanine fluorochrome label, coupled as NHS ester; AEEA = NCCOCCOCC(=O)O

B1: Compound 6: Cy5.5-(AEEA)1-…-amide scrambled (peptide)
peptide: NYQTPVYGWIYH
modifications: Cy5.5-(AEEA)1 at the N-terminus; C-terminal amide

Experiments:
[1] = test system: Gli36Δ5 orthotopic brain tumors overexpressing EGFR; test: Ex vivo fluorescence imaging of brains with orthotopic Gli36Δ5 tumors; format: in vivo, mice; settings: for accumulation in tumor, % of injected dose: 1 nmol/g tail vein, 1 hour, brains imaged ex vivo; for tumor targeting (in words): 1 nmol/g, ex vivo analysis of brain tissues
Description: NIH athymic nude female mice (5-8 weeks and 20-25 g upon arrival, NCI-NIH) were maintained at the Animal Resource Center at Case Western Reserve University (Cleveland, Ohio) according to institutional policies. Cell for brain implantation were harvested with 1 mL 0.05% trypsin-EDTA (Gibco) and briefly washed with PBS. Trypsin was inactivated by the addition of serum-containing media. The resulting cell suspension was centrifuged at […] for 3 minutes. The cell suspension was centrifuged and the supernatant was removed after 2 washes in PBS. Finally, the cells were resuspended in […] PBS for brain implants per animal (250,000 cells per animal for brain implants). Immediately following the cell harvesting procedure, animals were inoculated. For brain tumor implantation, mice were anesthetized by intraperitoneal (i.p.) injection of 50 mg/kg ketamine/xylazine and fitted into a stereotaxic rodent frame (David Kopf Instruments). A small incision was made just lateral to midline to expose bregma suture. A small (1.0 mm) burr hole was drilled at anterior (AP)=+1, lateral (ML)=−2.5 from the bregma. Glioblastoma cells were slowly deposited at a rate of 1 μL/min in the right striatum at a depth of 3 mm from dura with a 10-μL syringe (23-G needle). The needle was slowly withdrawn and the incision was closed with 2 to 3 sutures. Brain tumors grew for 10 to 12 days as per IACUC protocols at which point in vivo imaging studies were conducted. As control for the effects of surgical intervention, animals were also subjected to the implantation procedure but Optical Imaging of Tumors with EGFR Overexpression received 2 μL PBS (sham animals). Animals were fed exclusively on a special rodent diet (Harlan Laboratories, Inc.; Tekland 2018S) to reduce autofluorescence.
Mice bearing brain tumors derived from Gli36Δ5 or U87-MG cells were administered with compounds at 1 nmol/g via tail vein injection. In vivo competition assays were done with mixture of compound 2 and 10-fold concentration of nonlabeled probe 5. Before injection, mice were anesthetized with isoflurane and subjected to tomographic and spectral fluorescence imaging. One hour after injection, animals were re-imaged. Brains were then extracted and imaged. The excised brains were embedded in Tissue-Tek optimum cutting temperature for cryosections for immunohistochemistry (IHC). Fluorescence-mediated molecular tomography (FMT) images were obtained using FMT2500 (Perkin-Elmer), and 3-dimensional reconstructions of fluorescent signals were acquired using the accompanying software TrueQuant. Quantitative fluorescent signals for Cy5.5 of compound 2 were calibrated as per manufacturer's instructions using the 680-channel. Region of interest (ROI) assigned on the basis of the precise placement of cells during implantation at 3 to 4 mm into the brain. ROI was corroborated with fluorescent signals from ex vivo imaging. Fluorescent multispectral images were obtained using the Maestro In-Vivo Imaging System (CRi, Inc.). […] Fluorescence images were acquired before treatment, immediately after and 1.5 hours after treatment. To compare signal intensities, ROIs were selected over the tumor or nontumor areas, and the change in fluorescence signal over baseline was determined. […] The total signal in the ROI defined in photons measured at the surface of the animal was divided by the area (in pixels). Spectral libraries were generated by assigning spectral peaks to background and fluorescence probe on tissue. […]

[2] = molecular target: T1, EGFR (Homo sapiens, UniProt P00533); test: Saturation binding assay of Cy5.5-labeled peptides on Gli36Δ5 cells; settings: for Kd: 37° C., 90 minutes, read-out: apparent binding affinity Kd from saturation binding assay
T1 construct: endogenous in cells; host or cells: Gli36Δ5 human glioblastoma cells
Description: To determine binding affinities of the Cy5.5-labeled peptides 1 to 4 to EGFR, a saturation binding assay protocol using labeled fluorescence ligand against cell surface receptors was adapted as previously reported. Briefly, Gli36Δ5 cells were plated 20,000 cells per well were plated on black Costar 96-well plates (cat. no. 3603). Probes were diluted to range of concentration ([…]) in growing media with 0.3% bovine serum albumin (BSA) and added into wells and incubated at 37° C. for 90 minutes at 5% CO2. Cells were then washed with PBS twice and dried. DMSO was added before reading fluorescence (excitation 670 nm, emission 700 nm) with a Tecan Infinite M200 plate reader. Saturation binding assay data were in quadruplicates and analyzed using one site binding classical equation for nonlinear regression analysis with the GraphPad Prism version 4.0.
Binding affinity was determined with nonlinear regression analysis with one site binding hyperbola with an equation: […], where Bmax is the maximal binding site and the Kd is the concentration required to reach half-maximal binding. ANOVA analysis at 95% confidence interval (CI) was used to compare treatments (*, […]; confidence interval, ***, […]). To compare live animal FMT, nonparametric one-way ANOVA analyses (Kruskal-Wallis tests) and the median differences were considered significant with P=0.0220.

[3] = test system: Gli36Δ5 orthotopic brain tumors; test: In vivo FMT imaging of orthotopic Gli36Δ5 brain tumors; parameters: species or system mice
Description: (§1) NIH athymic nude female mice (5-8 weeks and 20-25 g upon arrival, NCI-NIH) were maintained at the Animal Resource Center at Case Western Reserve University (Cleveland, Ohio) according to institutional policies. Cell for brain implantation were harvested with 1 mL 0.05% trypsin-EDTA (Gibco) and briefly washed with PBS. Trypsin was inactivated by the addition of serum-containing media. The resulting cell suspension was centrifuged at […] for 3 minutes. The cell suspension was centrifuged and the supernatant was removed after 2 washes in PBS. Finally, the cells were resuspended in […] PBS for brain implants per animal (250,000 cells per animal for brain implants). […]
(§2) Mice bearing brain tumors derived from Gli36Δ5 or U87-MG cells were administered with compounds at 1 nmol/g via tail vein injection. […] Before injection, mice were anesthetized with isoflurane and subjected to tomographic and spectral fluorescence imaging. […] Fluorescence-mediated molecular tomography (FMT) images were obtained using FMT2500 (Perkin-Elmer), and 3-dimensional reconstructions of fluorescent signals were acquired using the accompanying software TrueQuant. Quantitative fluorescent signals for Cy5.5 of compound 2 were calibrated as per manufacturer's instructions using the 680-channel. […] Fluorescence images were acquired before treatment, immediately after and 1.5 hours after treatment. […]

[4] = In vivo FMT imaging of sham surgery animals; parameters: species or system mice
Description: as §1, §2

[5] = test system: Gli36Δ5 cells; test: Receptor uptake, cell-associated fluorescence in Gli36Δ5 cells; format: cell-based, human; settings: 1 μmol/L compound
Description: FIG. 2 illustrates a plot showing cell associated fluorescence measured using spectrofluorometry at the indicated times for Gli36Δ5 cells incubated with 1 μmol/L of compounds 1 to 4 [Cy5.5-(AEEA)n-EGFpep].
FIGS. 3(A-B) illustrate images showing Gli36Δ5 (A) and U87-MG (B) cells incubated with 1 μmol/L compounds for the indicated times. Uptake of the compounds was assessed using epifluorescence microscopy. Images were taken at ×40 magnification. Scale bar, 50 μm.
Gli36Δ5 or U87-MG cell lines plated in 96-well culture plates (20,000 cells per well; 3 wells per condition) were incubated over indicated time periods with […] of Cy5.5-labeled EGF peptides 2, 3, and 4 at 37° C. and 5% CO2. Cells were briefly rinsed with HEPES buffer and imaged with a Tecan Infinite M200 fluorescence plate reader (excitation 670 nm, emission 700 nm).

[6] = test system: A431 cells (high wild-type EGFR); test: Saturation binding and fluorescence uptake in A431 cells; format: cell-based, human; settings: A431 cells incubated with compound plus EGF ligand
Source text: We also examined the expression of EGFRvIII in the cell lines. […] In addition, we examined A431 cells, a squamous carcinoma cell line, that expresses high levels of wild-type EGFR.

[7] = test system: U87-MG orthotopic brain tumors; test: In vivo FMT imaging of orthotopic U87-MG brain tumors; parameters: species or system mice
Description: as §1, §2

[8] = molecular target: human epidermal growth factor receptor (EGFR) (human) (UniProt P00533); test: cell-based or functional assay

Row | Molecule | accumulation in tumor, % of injected dose [1] | tumor targeting (in words) [1] | binding affinity to the cells (in words) [2] | Kd [2] | cellular uptake / accumulation of fluorescence (in words) [5] | other results
1 | Cy5.5-(AEEA)1-NYQTPVYGWIYH-amide ({Cy5.5-AEEA}-NYQTPVYGWIYH-NH2) [Compound 6, Cy5.5-labeled scrambled peptide, specificity control, reference compound] | 0.006 % of injected dose | did not target the tumor | – | – | – | –
2 | Cy5.5-(AEEA)1-YHWYGYTPQNVI-amide [Compound 2] | 1.1 % of injected dose | targeted the tumor efficiently | micromolar range | 8.9 µM | greatest accumulation of fluorescence | fluorescence signal as injected dose ([3]; Gli36Δ5 brain tumors, 1 nmol/g, 1 hour, FMT): 1.1%; amount of fluorescence in matching ROI (FMT 3-dimensional reconstruction) ([3]; Gli36Δ5 tumor): 9,271 nmol/L; amount of fluorescence in matching ROI (FMT 3-dimensional reconstruction) [4]: 272 nmol/L; cell fluorescence in the presence of EGF ligand (in words) [6]: increasing fluorescence in the presence of the EGF ligand; tumor targeting (in words) ([1]; listed as compound 2): targets the tumor significantly (***, P>0.0001) more efficiently than the scrambled peptide 6; fluorescence signal as injected dose ([7]; U87-MG brain tumors, 1 nmol/g, 1 hour, FMT): 0.27%; amount of fluorescence in matching ROI (FMT 3-dimensional reconstruction) ([7]; U87-MG tumor): 1,608 nmol/L
3 | Cy5.5-(AEEA)2-YHWYGYTPQNVI-amide [Compound 3] | – | – | micromolar range | 64.4 µM | Neither compound 1 (no linker) nor either of the molecules with greater linker numbers (compounds 3 and 4) was taken up by the cells to the same extent as compound 2 | –
4 | Cy5.5-(AEEA)3-YHWYGYTPQNVI-amide [Compound 4] | – | – | micromolar range | 123 µM | Neither compound 1 (no linker) nor either of the molecules with greater linker numbers (compounds 3 and 4) was taken up by the cells to the same extent as compound 2; also recorded: taken up by cells better than compound 3 | –
5 | Cy5.5-YHWYGYTPQNVI-amide [Compound 1] | – | – | micromolar range | 18.5 µM | Neither compound 1 (no linker) nor either of the molecules with greater linker numbers (compounds 3 and 4) was taken up by the cells to the same extent as compound 2 | –
6 | B1 | – | – | – | – | – | percent of injected dose delivered to Gli36Δ5 brain tumor (% of injected dose) [8]: 0.006
